Experimental data reported in the supplement of paper PMC6045584.
± gives the standard deviation of the averaged measurements.

What was measured:
[1] = compound: T1, CCCCCCCCCCCCCCCC(=O)Nc1ccn([C@@H]2O[C@H](CO)[C@@H](O)[C@@H]2C#N)c(=O)n1 [SAPACITABINE]; assay: surviving fraction relative to DMSO-only wells; higher = less growth inhibition; settings: exposure time: 5 days
In short: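 Log-phase tumour cells were seeded at 250–500 per well in 384-well plates and, from 24 hours after seeding, exposed continuously for five days to inhibitors at 0.5, 1, 5, 10, 50, 100, 500 and 1000 nM. Surviving fraction is CellTiter-Glo luminescence normalised to the median of DMSO-only wells. Luminescence was measured after 10 minutes at room temperature, and only lines screened three times with replicate Pearson r >0.7 and median Z' >0.3 were kept.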

[2] = compound: T1, SAPACITABINE; assay: area under dose-response curve of surviving fraction (unscaled, Aref=0) (surviving fraction x log10(nM)); higher = more resistant; settings: exposure time: 5 days; dose range 0.5-1000 nM
In short: (§1)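 Tumour cell lines in 384-well plates were exposed to eight inhibitor concentrations, from 0.5 to 1000 nM, for five days, and viability was read by CellTiter-Glo luminescence in three screens per line. Signals were normalised to DMSO-only wells, and 3-parameter logistic regression in the drc R package fitted dose-response survival curves to the surviving fractions. Area under the curve is given as the unscaled activity area. That area is taken over log10 dose with Aref = 0.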

[3] = compound: Cn1cc(C2=Nc3cc(NC(=O)C(N)C4CCCCC4)cc4c3C2=CNNC4=O)cn1; assay: as above; settings: exposure time: 5 days; dose range 0.5-1000 nM
In short: as §1

[4] = compound: Nc1nc2[nH]cnc2c(=S)[nH]1 [TIOGUANINE]; assay: as above; settings: exposure time: 5 days; dose range 0.5-1000 nM
In short: as §1

[5] = compound: C=CC(=O)Nc1cc2c(Nc3ccc(F)c(Cl)c3)ncnc2cc1OCCCN1CCOCC1 [CANERTINIB]; assay: as above; settings: exposure time: 5 days; dose range 0.5-1000 nM
In short: as §1

[6] = compound: CC[C@@H]1C(=O)N(C)c2cnc(Nc3ccc(C(=O)NC4CCN(C)CC4)cc3OC)nc2N1C1CCCC1 [BI-2536]; assay: as above; settings: exposure time: 5 days; dose range 0.5-1000 nM
In short: as §1

[7] = compound: CC1(C)CC(=O)c2c(C(F)(F)F)nn(-c3ccc(C(N)=O)c(N[C@H]4CC[C@H](OC(=O)CN)CC4)c3)c2C1 [SNX-5422]; assay: as above; settings: exposure time: 5 days; dose range 0.5-1000 nM
In short: as §1

[8] = compound: CN(C)C/C=C/C(=O)Nc1cc2c(Nc3ccc(F)c(Cl)c3)ncnc2cc1O[C@H]1CCOC1 [AFATINIB]; assay: as above; settings: exposure time: 5 days; dose range 0.5-1000 nM
In short: as §1

[9] = compound: CNC(=O)c1ccc(N2C(=S)N(c3ccc(C#N)c(C(F)(F)F)c3)C(=O)C2(C)C)cc1F [MDV3100]; assay: as above; settings: exposure time: 5 days; dose range 0.5-1000 nM
In short: as §1

| Test System | surviving fraction ([1]; 0.5 nM) | surviving fraction ([1]; 1 nM) | surviving fraction ([1]; 5 nM) | surviving fraction ([1]; 10 nM) | surviving fraction ([1]; 50 nM) | surviving fraction ([1]; 100 nM) | surviving fraction ([1]; 500 nM) | surviving fraction ([1]; 1000 nM) | area under dose-response curve [2] | area under dose-response curve [3] | area under dose-response curve [4] | area under dose-response curve [5] | area under dose-response curve [6] | area under dose-response curve [7] | area under dose-response curve [8] | area under dose-response curve [9] |
| --- | --- | --- | --- | --- | --- | --- | --- | --- | --- | --- | --- | --- | --- | --- | --- | --- |
| VP229 BREAST | 0.763 ± 0.17 | 0.668 ± 0.054 | 0.686 ± 0.11 | 0.643 ± 0.084 | 1 ± 0.14 | 0.835 ± 0.12 | 0.69 ± 0.099 | 0.669 ± 0.083 | 2.46 | 3.5 | 3.57 | 1.58 | 1.18 | 2.34 | 1.7 |  |
| HOSMNG BONE | 0.96 ± 0.087 | 1.02 ± 0.032 | 1.06 ± 0.021 | 1.04 ± 0.031 | 1.12 ± 0.078 | 1.16 ± 0.016 | 0.948 ± 0.021 | 0.703 ± 0.046 | 3.25 | 3.09 | 3.34 | 3.4 | 1.32 | 2.33 | 3.23 | 3.56 |
| MDAMB453 BREAST | 0.988 ± 0.053 | 0.968 ± 0.053 | 1 ± 0.058 | 1.03 ± 0.07 | 1.01 ± 0.022 | 1.01 ± 0.067 | 0.641 ± 0.033 | 0.407 ± 0.03 | 3.1 | 2.33 | 3.28 | 3.19 | 0.857 | 2.06 | 2.7 | 3.16 |
| HCC70 BREAST | 0.968 ± 0.09 | 0.935 ± 0.058 | 1.03 ± 0.036 | 0.97 ± 0.023 | 0.746 ± 0.065 | 0.635 ± 0.0092 | 0.4057 ± 0.0035 | 0.332 ± 0.028 | 2.57 | 2.23 | 3.37 | 3 | 2 | 2.19 |  | 3.28 |
| HT1080 SOFT TISSUE | 1 ± 0.028 | 1.01 ± 0.029 | 1.02 ± 0.053 | 0.935 ± 0.053 | 0.591 ± 0.025 | 0.434 ± 0.012 | 0.314 ± 0.012 | 0.271 ± 0.0047 | 2.33 | 2.6 | 3.16 | 3.29 | 1.26 | 2.11 | 3.25 | 3.42 |
| SJSA1 BONE | 1.24 ± 0.072 | 1.18 ± 0.095 | 1.19 ± 0.25 | 1.21 ± 0.066 | 1.65 ± 0.058 | 1.74 ± 0.087 | 1.65 ± 0.1 | 1.75 ± 0.11 | 4.77 | 3.02 | 3.46 |  | 1.58 | 2.07 | 3.26 | 2.71 |
| HCC1806 BREAST | 0.698 ± 0.06 | 0.673 ± 0.062 | 0.652 ± 0.048 | 0.462 ± 0.067 | 0.259 ± 0.028 | 0.167 ± 0.0089 | 0.0637 ± 0.0081 | 0.061 ± 0.007 | 1.25 | 2.07 | 3.5 | 2.12 | 0.671 | 1.85 | 2.28 | 3.52 |
| HS578T BREAST | 0.81 ± 0.081 | 0.76 ± 0.082 | 0.841 ± 0.024 | 0.899 ± 0.077 | 1.13 ± 0.1 | 0.987 ± 0.19 | 0.681 ± 0.061 | 0.668 ± 0.13 | 2.8 | 2.39 | 3.13 | 2.92 | 0.912 | 2.21 |  | 3.38 |
| T47D BREAST | 0.9004 ± 0.0044 | 0.871 ± 0.029 | 0.911 ± 0.078 | 0.825 ± 0.035 | 0.961 ± 0.06 | 0.918 ± 0.036 | 0.649 ± 0.0094 | 0.519 ± 0.039 | 2.9 | 3.35 | 3.35 | 3.01 | 1.66 | 2.33 | 3.42 | 3.29 |
| ZR751 BREAST | 1.02 ± 0.049 | 1 ± 0.21 | 1.01 ± 0.14 | 0.888 ± 0.13 | 1.01 ± 0.073 | 0.788 ± 0.011 | 0.627 ± 0.06 | 0.472 ± 0.039 | 2.9 | 2.71 |  | 2.8 | 2.69 | 2.39 | 2.83 | 3.69 |
| MDAMB231 BREAST | 0.91 ± 0.016 | 0.919 ± 0.022 | 0.936 ± 0.031 | 0.927 ± 0.034 | 0.936 ± 0.043 | 0.882 ± 0.053 | 0.648 ± 0.03 | 0.516 ± 0.019 | 2.9 | 2.84 | 3.15 | 3.15 | 1.56 | 2.3 | 3.07 | 3.22 |
| HSSYII SYNOVIAL | 0.797 ± 0.015 | 0.636 ± 0.061 | 0.726 ± 0.032 | 0.132 ± 0.022 | 0.537 ± 0.033 | 0.315 ± 0.005 | 0.123 ± 0.0085 | 0.0603 ± 0.0046 | 1.36 | 1.67 | 3.09 | 2.66 | 0.796 | 1.9 | 2.96 | 2.74 |
| NOS1 BONE | 0.853 ± 0.16 | 0.774 ± 0.081 | 0.938 ± 0.16 | 0.863 ± 0.062 | 0.968 ± 0.12 | 0.973 ± 0.13 | 0.811 ± 0.059 | 0.764 ± 0.14 | 2.87 | 2.73 | 3.79 | 3.08 | 1.35 | 2.09 | 2.86 |  |
| LNCAP PROSTATE | 1.04 ± 0.033 | 1.09 ± 0.059 | 0.998 ± 0.053 | 0.913 ± 0.031 | 0.51 ± 0.012 | 0.329 ± 0.035 | 0.208 ± 0.014 | 0.159 ± 0.012 | 2.15 | 3.06 | 3.21 |  | 0.892 | 1.64 | 3.17 | 3.01 |
| A549 LUNG | 0.906 ± 0.026 | 0.906 ± 0.023 | 0.908 ± 0.021 | 0.906 ± 0.013 | 0.87 ± 0.022 | 0.666 ± 0.035 | 0.416 ± 0.001 | 0.308 ± 0.034 | 2.57 |  | 3.21 | 3.08 | 1.16 | 2.28 | 3.35 | 3.23 |
| SUM159 BREAST | 0.954 ± 0.016 | 0.942 ± 0.01 | 0.947 ± 0.028 | 0.9227 ± 0.0074 | 0.935 ± 0.018 | 0.851 ± 0.018 | 0.42 ± 0.0061 | 0.34 ± 0.021 | 2.81 | 3.54 |  | 3.11 | 1.81 | 2.17 | 3.13 | 3.33 |
